Reference: patent US11472803B2, “7-substituted 1-aryl-naphthyridine-3-carboxylic acid amides and use thereof” (Bayer Aktiengesellschaft, priority 2016, dated 2022)

Assays:
human M2 receptor [1] = target: T1, human M2 receptor (Homo sapiens, UniProt P08172); experiment: Functional M2-GIRK1/4 activation test: allosteric potency (EC50) and efficiency at EC20 acetylcholine; assay type: cell-based; conditions: CHO-DUKX-M2-GIRK cells; for EC50: voltage-sensitive dye, acetylcholine at EC20, in some cases mean of two or more determinations; for Emax: boosting of the acetylcholine effect at EC20 acetylcholine concentration
T1 construct: expressed in transfected cells; host or cells: CHO-DUKX (CHO-DUKX-M2-GIRK)
T1 sequence (P08172 1-466): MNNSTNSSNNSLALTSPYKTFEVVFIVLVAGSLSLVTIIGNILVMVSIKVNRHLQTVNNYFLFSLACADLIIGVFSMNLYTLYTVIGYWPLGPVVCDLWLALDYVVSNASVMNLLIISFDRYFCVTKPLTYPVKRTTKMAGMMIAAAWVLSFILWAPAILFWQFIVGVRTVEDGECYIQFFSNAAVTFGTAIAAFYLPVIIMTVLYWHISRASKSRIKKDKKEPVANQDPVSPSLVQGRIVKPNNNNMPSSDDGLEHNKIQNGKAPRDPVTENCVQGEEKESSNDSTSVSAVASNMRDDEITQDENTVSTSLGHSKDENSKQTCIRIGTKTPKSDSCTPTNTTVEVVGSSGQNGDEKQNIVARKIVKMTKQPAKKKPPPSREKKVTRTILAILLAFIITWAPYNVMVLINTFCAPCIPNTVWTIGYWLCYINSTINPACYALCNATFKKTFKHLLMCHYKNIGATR
Procedure, shortened: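 CHO-DUKX cells stably expressing human M2 and GIRK1/4; membrane potential tracked with voltage-sensitive dye at room temperature. Compound added 50 s before acetylcholine at its EC20, then hyperpolarization read 60 s. EC50 (allosteric potency) and efficiency (boost of EC20 ACh effect) from 4-parameter Hill fit.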

human M2 receptor [2] = target: T1, human M2 receptor; experiment: Functional M2-GIRK1/4 activation test: positive cooperativity (α factor), shift of acetylcholine dose-response curve; assay type: cell-based; conditions: Allosteric EC50 shift of acetylcholine 8-point dose-response curve; CHO-DUKX-M2-GIRK cells; α>1 = positive cooperativity
Procedure, shortened: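 CHO-DUKX cells stably expressing human M2 and GIRK1/4, loaded with voltage-sensitive dye at room temperature; hyperpolarization followed by fluorescence. Each test-substance concentration, added first, combined with an 8-point acetylcholine dose-response; shift of the acetylcholine curve analysed by allosteric EC50 shift model to give cooperativity factor α.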

Row | SMILES | EC50 (human M2 receptor [1]) [nM] | Emax (human M2 receptor [1]) [%] | Cooperativity (alpha factor) (human M2 receptor [2])
1 | O=C(NC(C(F)(F)F)C(F)(F)F)c1cn(-c2ncc(F)cc2F)c2nc(N3C[C@@H](O)[C@H](O)C3)c(F)cc2c1=O [Example 145, 1-(3,5-Difluoropyridin-2-yl)-7-[(3R,4R)-3,4-dihydroxypyrrolidin-1-yl]-6-fluoro-N-(1,1,1,3,3,3-hexafluoropropan-2-yl)-4-oxo-1,4-dihydro-1,8-naphthyridine-3-carboxamide] | 11.2 | 100 | 86
2 | CC(C)(NC(=O)c1cn(-c2c(F)cc(F)cc2F)c2nc(N3C[C@@H](O)[C@H](O)C3)c(Br)cc2c1=O)C(F)(F)F [Example 159, 6-Bromo-7-[(3R,4R)-3,4-dihydroxypyrrolidin-1-yl]-4-oxo-N-(1,1,1-trifluoro-2-methylpropan-2-yl)-1-(2,4,6-trifluorophenyl)-1,4-dihydro-1,8-naphthyridine-3-carboxamide] | 7.1 | 100 | 45
3 | O=C(N[C@@H](C1CC1)C(F)(F)F)c1cn(-c2c(F)cc(F)cc2F)c2nc(N3C[C@@H](O)[C@H](O)C3)c(Br)cc2c1=O [Example 160, 6-Bromo-N-[(1S)-1-cyclopropyl-2,2,2-trifluoroethyl]-7-[(3R,4R)-3,4-dihydroxypyrrolidin-1-yl]-4-oxo-1-(2,4,6-trifluorophenyl)-1,4-dihydro-1,8-naphthyridine-3-carboxamide] | 7.3 | 100 | 38
4 | CC(C)(NC(=O)c1cn(-c2c(F)cc(F)cc2F)c2nc(N3C[C@@H](O)[C@H](O)C3)c(F)cc2c1=O)C(F)(F)C(F)(F)F [Example 164, 7-[(3R,4R)-3,4-Dihydroxypyrrolidin-1-yl]-6-fluoro-4-oxo-N-(3,3,4,4,4-pentafluoro-2-methyl-butan-2-yl)-1-(2,4,6-trifluorophenyl)-1,4-dihydro-1,8-naphthyridine-3-carboxamide] | 2 | 100 | 45
5 | CC(C)(C)C(C)(C)NC(=O)c1cn(-c2c(F)cc(F)cc2F)c2nc(N3C[C@@H](O)[C@H](O)C3)c(F)cc2c1=O [Example 165, 7-[(3R,4R)-3,4-Dihydroxypyrrolidin-1-yl]-6-fluoro-4-oxo-1-(2,4,6-trifluorophenyl)-N-(2,3,3-trimethylbutan-2-yl)-1,4-dihydro-1,8-naphthyridine-3-carboxamide] | 2.4 | 100 | 48
6 | CC(C)(NC(=O)c1cn(-c2c(F)cc(F)cc2F)c2nc(N3CC(CO)(CO)C3)c(F)cc2c1=O)C(F)(F)C(F)(F)F [Example 166, 7-[3,3-Bis(hydroxymethyl)azetidin-1-yl]-6-fluoro-4-oxo-N-(3,3,4,4,4-pentafluoro-2-methyl-butan-2-yl)-1-(2,4,6-trifluorophenyl)-1,4-dihydro-1,8-naphthyridine-3-carboxamide] | 4.4 | 100 | 31
7 | O=C(NC(C1CC1)(C1CC1)C(F)(F)F)c1cn(-c2c(F)cc(F)cc2F)c2nc(N3C[C@@H](O)[C@H](O)C3)c(F)cc2c1=O [Example 203, N-(1,1-dicyclopropyl-2,2,2-trifluoroethyl)-7-[(3R,4R)-3,4-dihydroxypyrrolidin-1-yl]-6-fluoro-4-oxo-1-(2,4,6-trifluorophenyl)-1,4-dihydro-1,8-naphthyridine-3-carboxamide] | 5 | 100 | 29
8 | O=C(NC(C1CC1)(C1CC1)C(F)(F)C(F)(F)F)c1cn(-c2c(F)cc(F)cc2F)c2nc(N3C[C@@H](O)[C@H](O)C3)c(F)cc2c1=O [Example 208, N-(1,1-dicyclopropyl-2,2,3,3,3-pentafluoropropyl)-7-[(3R,4R)-3,4-dihydroxypyrrolidin-1-yl]-6-fluoro-4-oxo-1-(2,4,6-trifluorophenyl)-1,4-dihydro-1,8-naphthyridine-3-carboxamide] | 1.8 | 100 | 27
9 | O=C(NC(C1CC1)(C1CC1)C(F)(F)F)c1cn(-c2c(F)cc(F)cc2F)c2nc(N3CC(CO)(CO)C3)c(F)cc2c1=O [Example 210, 7-[3,3-bis(hydroxymethyl)azetidin-1-yl]-N-(1,1-dicyclopropyl-2,2,2-trifluoroethyl)-6-fluoro-4-oxo-1-(2,4,6-trifluorophenyl)-1,4-dihydro-1,8-naphthyridine-3-carboxamide] | 2.1 | 100 | 26
10 | O=C(NC(C1CC1)(C1CC1)C(F)(F)C(F)(F)F)c1cn(-c2c(F)cc(F)cc2F)c2nc(N3CC(CO)(CO)C3)c(F)cc2c1=O [Example 212, 7-[3,3-bis(hydroxymethyl)azetidin-1-yl]-N-(1,1-dicyclopropyl-2,2,3,3,3-pentafluoropropyl)-6-fluoro-4-oxo-1-(2,4,6-trifluorophenyl)-1,4-dihydro-1,8-naphthyridine-3-carboxamide] | 2 | 100 | 28
11 | O=C(NC(C(F)(F)F)C(F)(F)F)c1cn(-c2c(F)cc(F)cc2F)c2nc(N3CC(CO)(CO)C3)c(F)cc2c1=O [Example 230, 7-[3,3-bis(hydroxymethyl)azetidin-1-yl]-6-fluoro-N-(1,1,1,3,3,3-hexafluoropropan-2-yl)-4-oxo-1-(2,4,6-trifluorophenyl)-1,4-dihydro-1,8-naphthyridine-3-carboxamide] | 9.7 | 97 | 36
